“Also recorded” adds a separate entry of the source.
Key:
[1] = test system: AM14 RF+ B cells; assay: RF+ B cell proliferation (3[H]-thymidine incorporation); assay type: cell-based, mouse; conditions: for Inhibition of RF+ B cell response to mAb PL2-3 / chromatin-containing IC: FIGS. 5A-5C
Experimental: Cell culture and reagents. Spleen cell preparations were T-depleted and cultured with the appropriate ligands for 40-48 hrs. In some experiments, B cells were preincubated with CD40L as described (Rifkin, et al., J. Immunol. 165, 1626-1633 (2000)). Proliferation was assessed by ^3[H]-thymidine incorporation during the final 16 hours of culture. Data are presented as the mean percentage of the anti-IgM response from triplicate cultures. The percentage of the anti-IgM response was calculated according to the formula: [(cpm experimental condition−cpm CD40L alone)/(cpm anti-IgM−cpm CD40L alone)×100].
In some experiments, DNase I (type IV) (Sigma, St. Louis, Mo.), chloroquine (Sigma), concanamycin B, bafilomycin A (Sigma), or 12 μg/ml of the inhibitory CpG S-ODN 2008 (Lenart, et al., Antisense Nucleic Acid Drug Dev. 4, 247-256 (2001)) (Oligo's Etc.) were added to the cultures 15-30 min-2 hr before the addition of the ligands.

[2] = in vivo; cited from earlier work
[3] = test system: RF+ MyD88−/− B cells; assay: Proliferation of RF+ MyD88-/- B cells; assay type: cell-based, mouse; conditions: FIG. 4C
Experimental: To investigate the potential role of TLRs in mediating RF+ B cell responses to autoantibody/autoantigen IC, we crossed the AM14 transgenes onto a MyD88−/− background (Adachi, et al., Immunity 9, 143-150 (1998)). B cells from RF− MyD88+/+ (wildtype), RF+ MyD88+/+, and RF+ MyD88−/− offspring, identified by a combination of PCR and FACS analysis (FIGS. 4A-4B), were assessed for their ability to respond to anti-IgM, CpG ODN, and LPS, as well as to a panel of anti-nucleosome mAbs and autoimmune sera.
Mice. […] Complement receptor genotype was determined by flow cytometry using the FITC-conjugated 7G6 antibody (Pharmingen, San Diego, Calif.). MyD88 genotype was determined by PCR using the primers: MyD88F (5′-TGGCATGCCTCCATCATAGTTAACC-3′) [SEQ ID NO: 1], MyD88R (5′-GTCAGAAACAACCACCACCATGC-3′) [SEQ ID NO: 2], and neoR (5′-ATCGCCTTCTATCGCCTTCTTGACG-3′) [SEQ ID NO: 3] […]
Cell culture and reagents. […] Proliferation was assessed by ^3[H]-thymidine incorporation during the final 16 hours of culture. […] The percentage of the anti-IgM response was calculated according to the formula: [(cpm experimental condition−cpm CD40L alone)/(cpm anti-IgM−cpm CD40L alone)×100].

[4] = test system: dendritic cells from C57BL/6 mice lacking the Fc receptor γ chain; assay: Dendritic cell TNF-α production, Fc receptor γ chain deficient mice; assay type: cell-based, mouse; conditions: Table 2, Fc receptor γ chain deficient dendritic cells; 48 hours
Experimental: (§1) Dendritic cells were generated from the bone marrow of C57BL/6 wildtype mice and from C57BL/6 mice lacking the Fc receptor γ chain in by in vitro culture of the bone marrow cells with GM-CSF and IL-4 for 6 days. On day 6, the CD11c positive dendritic cells were isolated using magnetic beads. The stimulatory ODN 1826 (3 μg/ml), that specifically activates through TLR9, lipopolysaccharide (LPS, 10 μg/ml), the anti-chromatin antibodies PL2-3 (50 μg/ml; IgG2a) and PL2-8 (50 μg/ml; IgG2b), two different antibody/protein ratios of α-TNP/TNP-BSA immune complexes (50 μg/ml), or the culture medium only (media), was then added to the dendritic cell cultures. After 48 hours, levels of TNF-α in the culture supernatants was measured by ELISA (results shown as pg/ml; lower level of sensitivity of assay is 50 pg/ml). A representative experiment of 2 similar experiments is shown.

[5] = test system: CD11c positive dendritic cells from bone marrow of C57BL/6 mice; assay: Dendritic cell activation (TNF-α and IL-12 ELISA, CD86 flow cytometry); assay type: cell-based, mouse; conditions: for TNF-α in culture supernatants (ELISA): 48 hours
Experimental: Dendritic cells were generated from the bone marrow of C57BL/6 mice by in vitro culture with GM-CSF and IL-4 for 6 days. On day 6, the CD11c positive dendritic cells were isolated using magnetic beads (Miltenyi Biotec) and either pre-incubated, or not pre-incubated, for 30 minutes with ODN 2088, an inhibitory oligodeoxynucleotide that specifically blocks signaling through TLR9. The stimulatory ODN 1826 (CpG, 3 μg/ml), that specifically activates through TLR9, or lipopolysaccharide (LPS, 10 μg/ml), that activates through TLR4, or culture medium only (media), was then added to the cultures. After 48 hours, levels of TNF-α (8A) and IL-12 (8B) in the culture supernatants were measured by ELISA (results shown as OD units determined by absorption at 405 nm). After removal of the supernatants, cells were collected and analyzed by flow cytometry for expression of the co-stimulatory molecule CD86 (8c). Unstimulated refers to the level of expression of CD86 in the presence of media alone, whereas stimulated refers to the level of expression of CD86 in the presence of the stimulus (ODN 1826 or LPS).
Dendritic cells were generated from the bone marrow of C57BL/6 mice by in vitro culture with GM-CSF and IL-4 for 6 days. On day 6, the CD11c positive dendritic cells were isolated using magnetic beads (Miltenyi Biotec). The dendritic cells were then either pre-incubated, or not pre-incubated, for 30 minutes with ODN 2088 at 12 μg/ml. The stimulatory ODN 1826 (3 μg/ml), that specifically activates through TLR9, lipopolysaccharide (LPS, 10 μg/ml), that activates through TLR4, the anti-chromatin antibody PL2-3 (50 μg/ml), three different antibody/protein ratios of α-TNP/TNP-BSA immune complexes (50 μg/ml), or the culture medium only (media), was then added to the cultures. After 48 hours, levels of TNF-α in the culture supernatants was measured by ELISA (results shown as pg/ml; lower level of sensitivity of assay is 50 pg/ml). A representative experiment of 3 similar experiments is shown.
as §1

[6] = Table 1, column 2088: pre-incubated 30 minutes with ODN 2088 at 12 μg/ml
[7] = Table 1, column None: no ODN 2088 pre-incubation, lower level of sensitivity 50 pg/ml
[8] = Table 2, wildtype C57BL/6 dendritic cells

For `Cl.N` [ammonium chloride], the “Inhibition of RF+ B cell response to mAb PL2-3 / chromatin-containing IC” value [1] was “inhibited”.

For `CO/C1=C\C(C)=C\[C@@H](C)[C@@H](O)[C@@H](C)C/C(C)=C/C=C/[C@H](OC)[C@@H]([C@@H](C)[C@@H](O)[C@H](C)[C@@]2(O)C[C@@H](O)[C@H](C)[C@@H](C(C)C)O2)OC1=O` [bafilomycin A], the “Inhibition of RF+ B cell response to mAb PL2-3 / chromatin-containing IC” value [1] was “inhibited”.

For `CCN(CC)CCCC(C)Nc1ccnc2cc(Cl)ccc12` (stereo not drawn) [chloroquine], the “Treatment of autoimmune diseases including rheumatoid arthritis and SLE” value [2] is given as “effective treatment”, the “Inhibition of RF+ B cell response to mAb PL2-3 / chromatin-containing IC” value [1] is given as “completely blocked; also recorded: inhibited” and the “Inhibition of proliferative response to stimulatory CpG S-ODN 1826” value ([1]; TLR9 ligand) is given as “inhibited”.

For `C/C=C/[C@H]1O[C@@](O)([C@@H](C)[C@H](O)[C@H](C)[C@H]2OC(=O)/C(OC)=C/C(C)=C/[C@@H](C)[C@@H](O)[C@@H](CC)[C@@H](O)[C@H](C)C/C(C)=C/C=C/[C@@H]2OC)C[C@@H](O[C@H]2C[C@@H](O)[C@H](OC(N)=O)[C@@H](C)O2)[C@@H]1C` [concanamycin A], the “Inhibition of RF+ B cell response to mAb PL2-3 / chromatin-containing IC” value [1] was “completely blocked”.

With `C/C=C/[C@H]1O[C@@](O)([C@@H](C)[C@H](O)[C@H](C)[C@H]2OC(=O)/C(OC)=C/C(C)=C/[C@@H](C)[C@@H](O)[C@@H](C)[C@@H](O)[C@H](C)C/C(C)=C/C=C/[C@@H]2OC)C[C@@H](O[C@H]2C[C@@H](O)[C@H](OC(N)=O)[C@@H](C)O2)[C@@H]1C` [concanamycin B] the “Inhibition of RF+ B cell response to mAb PL2-3 / chromatin-containing IC” value [1] was “inhibited”.

For DNase, the “Effect of DNase on RF+ B cell proliferative response to anti-nucleosome mAb PL2-3 or autoimmune serum” value ([1]; DNase added to assay medium (FIG. 1)) was “dramatically reduced” and the “Effect of DNase on responses to F(ab')2 anti-IgM and LPS” value ([1]; FIG. 1, nonspecific toxicity control) was “unaffected”.

In the case of ODN 1826, the “Proliferative response of B cells from RF+ MyD88-deficient mice” value [3] is reported as “unable to respond”, the “TNF-α in culture supernatants (ELISA)” value [4] is reported as 2373 pg/mL and the “Cytokine production by dendritic cells” value ([5]; 3 μg/ml, 48 hours (FIGS. 8A, 8B)) is reported as “induces TNF-α and IL-12 production”. For the same molecule, the “Co-stimulatory molecule (CD86) expression on dendritic cells” value ([5]; FIG. 8C) was “induces upregulation of co-stimulatory molecules”, the “TNF-α in culture supernatants (ELISA)” value [5, 6] was <50 pg/mL and the “TNF-α in culture supernatants (ELISA)” value [5, 7] was 2347 pg/mL. For the same molecule, the “TNF-α in culture supernatants (ELISA)” value [5, 8] was 7899 pg/mL.

In the case of lipopolysaccharide [LPS], the “Proliferative response of B cells from RF+ MyD88-deficient mice” value [3] is reported as “responded only weakly”, the “TNF-α in culture supernatants (ELISA)” value [4] is reported as 3411 pg/mL and the “TNF-α in culture supernatants (ELISA)” value [5, 6] is reported as 2393 pg/mL. For the same molecule, the “TNF-α in culture supernatants (ELISA)” value [5, 7] was 2514 pg/mL and the “TNF-α in culture supernatants (ELISA)” value [5, 8] was 7056 pg/mL.
